Measurements taken from patent US20240374510A1, “COMPOSITIONS, USES AND METHODS FOR TREATMENT OF PERIODONTAL DISEASE” (THE UNIVERSITY OF BRITISH COLUMBIA, priority 2023, published 2024).

B1: HB-EGF: EGFR ligand heparin-binding EGF-like growth factor (protein, UniProt Q99075 63-148, looked up)
Heparin-binding EGF-like …: DLQEADLDLLRVTLSSKPQALATPNKEEHGKRKKKGKGLGKKRDPCLRKYKDFCIHGECKYVKELRAPSCICHPGYHGERCHGLSL

Columns and labels:
[1] = test system: ITGB6; settings: Bi et al., 2020; cited from earlier work
[2] = In-vitro release rate of gefitinib by the dialysis sack method; assay type: physicochemical; settings: artificial saliva and cell culture medium
Description: The release rate of gefitinib from microparticles as described herein into each of two different liquids was tested. The two test liquids were: artificial saliva (SAE0149, Sigma Aldrich) and Dulbecco's Modified Eagle Medium (DMEM; Gibco, Life Technologies, Inc., Burlington, ON, Canada). These liquids were used to simulate the environment of the oral cavity and body fluid, respectively.
In each of these in-vitro experiments, a dry powder of spray-dried microparticles according to one of the tested formulations was mixed into the applicable test liquid at a concentration of 20 μg dry powder per ml of test liquid.
The in-vitro release behaviors of the formulations identified as (*1), (*2), (*3), and (*4) in Table 2 were each tested by the dialysis sack method (cutoff molecular weight 8 kDa; Spectra Por; Spectrum Chemical Mfg. Corp., New Brunswick, NJ, USA). All samples were incubated at room temperature with continuous shaking at 70 rpm. […] The fluid was analyzed for gefitinib content by HPLC. The release rate of gefitinib from suspensions of dry powders in liquid was calculated from the ratio of released gefitinib to the total gefitinib encapsulated in the powders.
The release rate of unencapsulated gefitinib was measured according to the same protocol described above for the spray-dried microparticles.

[3] = test system: human gingival epithelial cell line (GEC); experiment: MTT test of cell viability and proliferation; assay type: cell-based; settings: 24 h, unencapsulated gefitinib
Description: The spontaneously immortalized human gingival epithelial cell line (GEC; (Mäkelä et al., 1998)) was maintained in a humidified incubator at +37° C. with 95% relative humidity and 5% CO2 in DMEM supplemented with 23 mM sodium bicarbonate, 20 mM HEPES, 50 μg/ml streptomycin sulfate, 100 U/ml penicillin and 10% heat-inactivated fetal bovine serum (FBS; Gibco). […]
The MTT test (CellTiter Non-radioactive Cell Proliferation Assay, Promega, Madison, WI, USA) was used to assess the effect of the microparticle formulations on cell viability and proliferation (Twarużek et al., 2018). […] The Solubilization/Stop Solution was then added to the culture wells for 24 h to solubilize the formazan product, and the absorbance at 570 nm was recorded with a microplate reader (iMark, Bio-Rad Laboratories, Hercules, CA, USA). […]
In each test, the cells were exposed to the formulation being tested for 24 h and then analyzed for cell numbers using the MTT test. Absorbance values of the untreated samples in each replicate experiment were set to 1, and the mean±s.e.m. of the relative results of 10-18 replicated experiments is presented. *, relative to untreated cells; +, difference between the same concentration of gefitinib and control microparticles; */+, p<0.05; **/++, p<0.01; ***/+++, p<0.001. […]

[4] = test system: ITGB6; experiment: Rescue of β6 integrin gene expression in GECs by RT-qPCR; assay type: cell-based, human
Description: GECs were seeded into cell culture dishes and allowed to grow to confluency for two days in their complete growth medium. The cells were then rinsed once with PBS and switched to FBS-free DMEM for 2 h in the presence or absence of one of: one of the suspensions of gefitinib-microparticles as above, one of the suspensions of respective control microparticles as above or 0.3 μM gefitinib. HB-EGF (5 ng/ml) and TGF-β1 (2 ng/ml; Millipore) were then added to the cells for a further 24 h.
The cells were then rinsed with PBS and used for RNA isolation and quantitative real-time reverse transcription PCR (RT-qPCR). Briefly, total RNA was extracted using PuroSPIN™ MINI Spin Columns (Luna Nanotech, Inc., Markham, ON, Canada) and the LogSpin method (Yaffe et al., 2012), and RNA concentration and purity were determined by spectrophotometry (NanoDrop One, Thermo Fisher Scientific, Waltham, MA, USA). 1 μg of total RNA was reverse-transcribed into cDNA using the High-Capacity cDNA Reverse Transcription Kit (Applied Biosystems, Thermo Fisher Scientific). […]
Asparagine-linked glycosylation 9 (ALG9) and glyceraldehyde-3-phosphate dehydrogenase (GAPDH) were used as reference genes for the target gene ITGB6 in triplicates. […] The data were analyzed using the Applied Biosystems Relative Quantification Analysis Module. […]

| Molecule | blocking of ITGB6 downregulation by HB-EGF [1] | further results |
| --- | --- | --- |
| C=CC(=O)Nc1cc2c(Nc3ccc(F)c(Cl)c3)ncnc2cc1OCCCN1CCOCC1 [canertinib] | capable of dose-dependently blocking ITGB6 downregulation |  |
| COc1cc2ncnc(Nc3ccc(F)c(Cl)c3)c2cc1NC(=O)/C=C/CN1CCCCC1 [dacomitinib] | capable of dose-dependently blocking ITGB6 downregulation |  |
| C#Cc1cccc(Nc2ncnc3cc(OCCOC)c(OCCOC)cc23)c1 [erlotinib] | capable of dose-dependently blocking ITGB6 downregulation |  |
| COc1cc2ncnc(Nc3ccc(F)c(Cl)c3)c2cc1OCCCN1CCOCC1 [gefitinib] | capable of dose-dependently blocking ITGB6 downregulation | release rate of gefitinib, in words [2]: quickly released; gefitinib concentration giving the corresponding GEC growth inhibition (baseline levels) [3]: 0.3 µM |
| CS(=O)(=O)CCNCc1ccc(-c2ccc3ncnc(Nc4ccc(OCc5cccc(F)c5)c(Cl)c4)c3c2)o1 [lapatinib] | capable of dose-dependently blocking ITGB6 downregulation |  |
| TGF-β1: transforming growth factor-β1, used to upregulate ITGB6 |  | upregulation of ITGB6 expression ([4]; TGF-β1 alone, 2 ng/ml, 24 h): about seven-fold |
| B1 |  | reduction of the TGF-β1 upregulation of ITGB6 ([4]; addition of HB-EGF 5 ng/ml to TGF-β1): about 60% |
